# Measured values taken from patent US20090068290A1, “BIFEPRUNOX DOSES FOR TREATING SCHIZOPHRENIA” (priority 2006, published 2009).
# What was measured:
# [1] = test system: adult subjects with schizophrenia; assay: BPRS total score, Clinical Study Three; type: in vivo, human; details: LOCF; for Change from Baseline in BPRS Total Score, Mean (SD) / Change from Baseline in BPRS Total Score, Median: Olanzapine 15 mg, ITT population
# Excerpt: SECONDARY OBJECTIVES To assess the efficacy of bifeprunox in treating schizophrenia using the Positive Symptom sub-scale score of the PANSS, the Negative Symptom sub-scale score of the PANSS, the General Psychopathology sub-scale of the PANSS, Brief Psychiatric Rating Scale (BPRS) total score derived from the PANSS, BPRS psychosis score derived from the PANSS, the Clinical Global Impression Severity of Illness score (CGI-S), the Clinical Global Impression Improvement score (CGI-I), CGI-I responder rate, PANSS responder rate based on the PANSS total score, Calgary Depression Scale for Schizophrenia (CDSS), and Subject Satisfaction rating.
# There were four treatment arms in this study, approximately 144 subjects per arm. […] After completing the Single-Blind Placebo Lead-in Period of at least three days, bifeprunox-treated subjects were titrated from 0.25 mg up to 20 mg/day or 30 mg/day according to a standardized titration scheme over a seven- or eight-day period, respectively. When the assigned dose was reached, subjects were maintained at that dose for the remainder of the six week treatment period. […] Subjects were hospitalized (if not already inpatients) after eligibility for study entry was verified, starting from the Screening Visit until at least 10 days after Baseline. Subjects could be hospitalized longer than 10 days if considered medically necessary by the Investigator. Rating scale assessments for efficacy and abnormal movement disorders were done weekly except for Week 5. […] Subject satisfaction with study medication was assessed at Week 6.
# [2] = test system: adult subjects with schizophrenia; assay: Calgary Depression Scale for Schizophrenia (CDSS), Clinical Study Two; type: in vivo, human; details: LOCF; for Change from Baseline in CDSS Total Score, Mean (SD) / Change from Baseline in CDSS Total Score, Median: 6 mg
# Procedure: Rating scale assessments were performed weekly, except for week 5, to measure the change from baseline to endpoint of the PANSS total score. Other assessments included: PANSS positive symptom subscale score, PANSS negative symptom subscale score, PANSS general pschopathology subscale score, BPRS total score, BPRS psychosis score, the CGI-S score, the CGI-I score, responder rates based on the PANSS total score, and the Calgary Depression Scale for Schizophrenia (CDSS). […]
# (§1) Subjects who completed this study had the option to continue in the long-term. […] Risperidone-treated subjects were titrated from 2 mg to 6 mg daily over a three-day period and were subsequently maintained at 6 mg/day for the remainder of the treatment period. […] Blood samples were also obtained at Screening/Baseline, Week 3, and Week 6 for clinical laboratory assessments.
# [3] = test system: adult subjects with schizophrenia; assay: Adverse events (TEAE, SAE, special interest, discontinuation, EPS-related TEAE), Clinical Study Three; details: Risperidone 6 mg
# Procedure: There were four treatment arms in this study, approximately 144 subjects per arm. […] After completing the Single-Blind Placebo Lead-in Period of at least three days, bifeprunox-treated subjects were titrated from 0.25 mg up to 20 mg/day or 30 mg/day according to a standardized titration scheme over a seven- or eight-day period, respectively. When the assigned dose was reached, subjects were maintained at that dose for the remainder of the six week treatment period. […] Subjects were hospitalized (if not already inpatients) after eligibility for study entry was verified, starting from the Screening Visit until at least 10 days after Baseline. Subjects could be hospitalized longer than 10 days if considered medically necessary by the Investigator. Rating scale assessments for efficacy and abnormal movement disorders were done weekly except for Week 5. Safety assessments were performed at Screening, during treatment and at the end of the study. Subject satisfaction with study medication was assessed at Week 6. Samples of whole blood were obtained at Weeks 2, 4, and 6 for determination of bifeprunox in plasma.
# EPS were assessed using treatment-emergent adverse events such as akathisia, dyskinesia, parkinsoniam, etc. and/or formal rating scales such as SAS, BAS, and/or AIMS.
# [4] = test system: adult subjects with schizophrenia; assay: CGI responder rate, Clinical Study Two; type: in vivo, human; details: LOCF
# Procedure: Notable differences were also observed between the 30 mg bifeprunox group and placebo for the change from baseline to endpoint in PANSS general psychopathology subscale score, BPRS total score, BPRS psychosis cluster score, PANSS responder rate, and CGI-I responder rate. In the study, a PANSS responder refers to a subject whose PANSS total score decreased by 20% or more from baseline to endpoint. A CGI-I responder refers to a subject who was categorized as “very much improved” or “much improved” in the CGI Global Improvement scale at endpoint.
# Pharmacokinetic (PK) data of bifeprunox in schizophrenic subjects were also assessed and are presented in a separate report (combined with data from study S1543003).
# as §1
# CLINICAL STUDY TWO: A CGI responder is defined as a subject who is categorized as “very much improved” or “much improved” on the CGI Improvement scale. […] A notable difference between the 30 mg bifeprunox group and placebo was seen (p=0.039).
smiles,measurement,setting,value
"Cc1cc2c(s1)Nc1ccccc1N=C2N1CCN(C)CC1 [Olanzapine, olanzapine, reference compound]","Change from Baseline in BPRS Total Score, Mean (SD)",[1]; Week 1,−5.6 (6.7)
same,"Change from Baseline in BPRS Total Score, Median",[1]; Week 1,−4
same,"Change from Baseline in BPRS Total Score, Mean (SD)",[1]; Week 2,−8.9 (8.2)
same,"Change from Baseline in BPRS Total Score, Median",[1]; Week 2,−8
same,"Change from Baseline in BPRS Total Score, Mean (SD)",[1]; Week 3,−11.4 (9.3)
same,"Change from Baseline in BPRS Total Score, Median",[1]; Week 3,−11
same,"Change from Baseline in BPRS Total Score, Mean (SD)",[1]; Week 4,−12.0 (9.8)
same,"Change from Baseline in BPRS Total Score, Median",[1]; Week 4,−11
same,"Change from Baseline in BPRS Total Score, Mean (SD)",[1]; Week 6/Endpoint,−13.2 (10.7)
same,"Change from Baseline in BPRS Total Score, Median",[1]; Week 6/Endpoint,−12
same,mean change (SD) from Baseline to Endpoint in BPRS total score,"[1]; olanzapine 15 mg, ITT",−13.2 (10.7)
"Cc1nc2n(c(=O)c1CCN1CCC(c3noc4cc(F)ccc34)CC1)CCCC2 [Risperidone, risperidone, reference compound]","Change from Baseline in CDSS Total Score, Mean (SD)",[2]; Week 1,−0.62 (2.42)
same,"Change from Baseline in CDSS Total Score, Median",[2]; Week 1,0.0
same,"Change from Baseline in CDSS Total Score, Mean (SD)",[2]; Week 2,−0.74 (2.71)
same,"Change from Baseline in CDSS Total Score, Median",[2]; Week 2,0.0
same,"Change from Baseline in CDSS Total Score, Mean (SD)",[2]; Week 3,−0.93 (3.41)
same,"Change from Baseline in CDSS Total Score, Median",[2]; Week 3,0.0
same,"Change from Baseline in CDSS Total Score, Mean (SD)",[2]; Week 4,−0.95 (3.08)
same,"Change from Baseline in CDSS Total Score, Median",[2]; Week 4,0.0
same,"Change from Baseline in CDSS Total Score, Mean (SD)",[2]; Week 6/Endpoint,−0.89 (3.42)
same,"Change from Baseline in CDSS Total Score, Median",[2]; Week 6/Endpoint,0.0
same,mean change (SD) from Baseline to Endpoint in CDSS score,"[2]; risperidone 6 mg, ITT",−0.89 (3.42)
same,"AKATHISIA, %",[3],3%
same,"BALANCE DISORDER, %",[3],1 (<1%)
same,"DIZZINESS, %",[3],5%
same,"DYSARTHRIA, %",[3],1 (<1%)
same,"DYSKINESIA, %",[3],1 (<1%)
same,"EXTRAPYRAMIDAL DISORDER, %",[3],1%
same,"HEADACHE, %",[3],12%
same,"HYPOKINESIA, %",[3],1 (<1%)
same,"Hypoaesthesia, %",[3],1 (<1%))
same,"MUSCULOSKELETAL STIFFNESS, %",[3],1 (<1%)
same,"NECK PAIN, %",[3],1%
same,"NERVOUS SYSTEM DISORDERS, %",[3],37%
same,"PAIN IN EXTREMITY, %",[3],2%
same,"PARAESTHESIA, %",[3],1 (<1%)
same,"RESTLESS LEGS SYNDROME, %",[3],1 (<1%)
same,"SEDATION, %",[3],8%
same,"SOMNOLENCE, %",[3],9%
same,"SPEECH DISORDER, %",[3],1 (<1%)
same,"TREMOR, %",[3],3%
same,"CGI Responder at Endpoint No, %",[4]; 6 mg,48%
same,"CGI Responder at Endpoint Yes, %",[4]; 6 mg,52%
same,CGI-I responder rate (subjects much or very much improved) at Endpoint,[4]; risperidone 6 mg,52%
